One may read the Ki as a dissociation constant, usually derived from enzyme kinetics or from competition with a known ligand. A low value points to higher affinity.

Drawing on BindingDB's records for doi:10.1016/j.bmcl.2003.08.064 (Abbott Laboratories, 2003), this text covers Ki for four compounds.

Where only a bound is given, the exact number is not on record here.

In assay [1] the target is T1, Tyrosine-protein phosphatase non-receptor type 2 (Homo sapiens, UniProt P17706).
T1 sequence (P17706 whole entry): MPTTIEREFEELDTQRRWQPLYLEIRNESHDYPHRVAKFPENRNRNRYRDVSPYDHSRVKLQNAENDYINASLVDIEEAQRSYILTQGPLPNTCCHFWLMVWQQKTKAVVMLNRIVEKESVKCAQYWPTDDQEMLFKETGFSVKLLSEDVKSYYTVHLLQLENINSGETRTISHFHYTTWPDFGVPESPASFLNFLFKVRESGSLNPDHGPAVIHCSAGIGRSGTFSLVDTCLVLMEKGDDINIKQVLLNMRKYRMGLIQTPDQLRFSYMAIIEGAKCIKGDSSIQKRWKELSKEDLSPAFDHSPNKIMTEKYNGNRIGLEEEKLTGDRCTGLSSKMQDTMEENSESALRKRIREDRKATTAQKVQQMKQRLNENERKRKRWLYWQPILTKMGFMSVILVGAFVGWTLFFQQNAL
The assay can be described thus: PTP1B and TCPTP Inhibition Assay. Conditions: pH 7.5; 22 °C.
Procedure: (§1) For each concentration of test compound or DMSO control, the initial rates were used to fit the rectangular hyperbola of Michaelis-Menten by nonlinear regression analysis. The ratio of the apparent Km/Vmax vs inhibitor concentration was plotted, and the Ki was calculated by linear regression to be the negative X-intercept.

Assay [2] concerns the target T2, Tyrosine-protein phosphatase non-receptor type 1 [1-298] (Homo sapiens, UniProt P18031).
T2 construct: 1-298
T2 sequence (P18031 whole entry): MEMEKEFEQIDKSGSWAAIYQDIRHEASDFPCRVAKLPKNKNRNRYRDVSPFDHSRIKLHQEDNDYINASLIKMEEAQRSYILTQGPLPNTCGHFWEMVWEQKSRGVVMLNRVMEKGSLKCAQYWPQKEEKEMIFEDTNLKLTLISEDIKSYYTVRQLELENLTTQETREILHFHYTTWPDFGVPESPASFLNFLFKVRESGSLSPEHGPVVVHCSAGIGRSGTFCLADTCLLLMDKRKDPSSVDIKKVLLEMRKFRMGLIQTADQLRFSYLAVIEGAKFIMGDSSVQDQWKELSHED
The assay can be described thus: PTP1B and TCPTP Inhibition Assay. Conditions: pH 7.5; 22 °C.
Procedure: as §1

As for `COC(=O)c1c(O)cccc1OCCCCNC(=O)[C@H](Cc1ccc(OCC(=O)O)cc1)NC(=O)OC(C)(C)C`, the Ki in assay [1] was over 200 µM.

In turn, `COC(=O)c1c(O)cccc1OCCCCNC(=O)[C@H](Cc1ccc(C=CC(=O)O)cc1)NC(=O)OC(C)(C)C` [(2Z)-3-{4-[(2S)-2-{[(tert-butoxy)carbonyl]amino}-2-({4-[3-hydroxy-2-(methoxycarbonyl)phenoxy]butyl}carbamoyl)ethyl]phenyl}prop-2-enoic acid] gave a Ki in assay [2] of over 200 µM.

Regarding `CCc1cc(CC(NC(C)=O)C(=O)NCCCCOc2cccc(O)c2C(=O)OC)ccc1N(C(=O)C(=O)O)c1ccccc1C(=O)O` (centres undefined), affinity in assay [1] was put at a Ki of 65 µM.

With `COC(=O)c1c(O)cccc1OCCCCNC(=O)[C@H](Cc1ccc(OCC(=O)O)c(O)c1)NC(C)=O` (racemic) [2-{4-[2-acetamido-2-({4-[3-hydroxy-2-(methoxycarbonyl)phenoxy]butyl}carbamoyl)ethyl]-2-hydroxyphenoxy}acetic acid], the inhibition constant (Ki) in assay [1] is 182 µM.
